This is an account of results in article PMC10038264, “A new family of glutamate-gated chloride channels in parasitic sea louse Caligus rogercresseyi: A subunit refractory to activation by ivermectin is dominant in heteromeric assemblies” (PLOS Pathogens, 2023).

One assay has as its system AgGluCl. More on the design: method as in PMID 7935817, PMID 8702744, PMID 25994631. The note with it: read-out: EC50 glutamate; cited from earlier work.
For a further assay, the system named is HcGluClα. More on the design: method as in PMID 7935817, PMID 8702744, PMID 25994631. The note with it: read-out: EC50 glutamate; cited from earlier work.
A further assay deals with CrGluCl-A (Caligus rogercresseyi, UniProt A0A1W6LZ70). The assay can be described thus: Two-electrode voltage-clamp of Xenopus oocytes expressing CrGluCl-A. The note with it: CrGluCl-A alone. Format: cell-based. As for the experimental part:
(§1) Adult female Xenopus laevis frogs were anaesthetized by immersion in a1g/L solution tricaine (Ethyl 3-aminobenzoate methanesulfonate, Sigma) buffered to pH 7 with NaHCO3. Surgery was performed 30–40 min later, once the frog was completely anaesthetized judging by loss of reflexes. Ovarian lobes were removed through 1 cm abdominal incision and then kept at 16°C in Barth’s modified solution containing (in mM): 88 NaCl, 1 KCl, 0.4 CaCl2, 0.3 Ca (NO3)2, 0.8 MgSO4, 2.4 NaHCO3, 5 Hepes, 2.5 sodium pyruvate, 100 μg/ml gentamicin sulfate, 100 U/ml penicillin, 100 μg/ml streptomycin, 250 μg/ml amphotericin B, 0.22μm filtered and adjusted to pH 7.5 with Tris-Base. Osmolarity was brought to 220 mOsm with saccharose. The oocytes were manually defolliculated on the same day of extraction and the following day 20 ng cRNA in nuclease-free water was injected into stage V-VI oocytes using a FemtoJet microinjector (Eppendorf). Finally, the injected oocytes were stored in 96 well plates containing Barth’s modified solution and kept at 16°C until experiment day.
Current measurements at controlled membrane potentials (voltage-clamp experiments) were performed using two intracellular microelectrodes in defolliculated Xenopus oocytes previously microinjected with 20 ng of cRNA. Voltage-clamp recording was performed at room temperature using a TURBO TEC-10CX amplifier (npi electronic GmbH, Tamm, Germany) and PClamp 10.6 software (Axon Instruments, USA), 1 to 4 days after oocyte injection. The oocytes were recorded in a chamber (Model RC-1Z, Warner Instrumenst, USA) under continuous superfusion. […] Reference was an Ag-AgCl electrode connected to the bath via a 3 M KCl in 3% agar bridge. Currents were recorded continuously during the experiments without interruptions for solution changes. […] The signal filtered at 1 kHz was acquired with a Digidata 1440A Analog-to-Digital Converter and analyzed with Axon pClamp 10.6 software. […]
On the technique in general: Two-electrode voltage clamp is typically applied to oocytes expressing channels or transporters.

A further assay deals with CrGluCl-B M340T mutant. The assay can be described thus: Voltage-clamp of oocytes expressing CrGluCl-B M340T mutant. It is filed as cell-based, Caligus rogercresseyi. The note with it: 1 μM ivermectin. The source says:
(§2) To identify putative GluCl subunits, we queried the NCBI Transcriptome Shotgun Assembly Sequence (TSA) Database for “glutamate-gated chloride channel Caligus”. The obtained sequences were translated and BLASTed (tBLASTn) against the C. rogercresseyi genome (WGS, BioProject ID 280098, NCBI) and against transcripts of L. salmonis database (https://licebase.org/). Primers for each of the putative new subunit found were designed to span the full length of the open reading frame (ORF) for each of them (B-E) (S1 Table, and arrows in Fig 1). Complete cDNAs were generated by RT-PCR from adult C. rogercresseyi samples from which putative full-length peptide sequences of CrGluCl-B, CrGluCl-C, CrGluCl-D and CrGluCl-E were obtained. Each PCR product was cloned in pGEM-T easy vector and sequenced. […]
(§3) Current measurements at controlled membrane potentials (voltage-clamp experiments) were performed using two intracellular microelectrodes in defolliculated Xenopus oocytes previously microinjected with 20 ng of cRNA. […] The oocytes were recorded in a chamber (Model RC-1Z, Warner Instrumenst, USA) under continuous superfusion. […] Currents were recorded continuously during the experiments without interruptions for solution changes. […] The signal filtered at 1 kHz was acquired with a Digidata 1440A Analog-to-Digital Converter and analyzed with Axon pClamp 10.6 software. […]

The test system of the next assay is CrGluCl-B Y361F mutant. The assay can be described thus: Voltage-clamp of oocytes expressing CrGluCl-B Y361F mutant. Format: cell-based, Caligus rogercresseyi. The note with it: 1 μM ivermectin, one-sample t-test.
Source text: as §2, §3

The subject of another assay is CrGluCl-B Q327T mutant. Put plainly: Voltage-clamp of oocytes expressing CrGluCl-B Q327T mutant. Format: cell-based, Caligus rogercresseyi. The note with it: 1 μM ivermectin, ANOVA P<0.05.
Source text: as §2, §3

Assay [1] relates to coexpressed CrGluCl-D:CrGluCl-B. The assay can be described thus: Voltage-clamp of oocytes coexpressing CrGluCl-D and CrGluCl-B. It is filed as cell-based, Caligus rogercresseyi. The note with it: B:D ratio 1:1. As for the experimental part: as §1, with “The oocytes were manually defolliculated on the same day of extraction and the following day 20 ng cRNA in nuclease-free water was injected into stage V-VI oocytes using a FemtoJet microinjector (Eppendorf). Finally, the injected oocytes were stored in 96 well plates containing Barth’s modified solution and kept at 16°C until experiment day.” left out
as §3

Sequence of CrGluCl-A (A0A1W6LZ70 entry or part of it): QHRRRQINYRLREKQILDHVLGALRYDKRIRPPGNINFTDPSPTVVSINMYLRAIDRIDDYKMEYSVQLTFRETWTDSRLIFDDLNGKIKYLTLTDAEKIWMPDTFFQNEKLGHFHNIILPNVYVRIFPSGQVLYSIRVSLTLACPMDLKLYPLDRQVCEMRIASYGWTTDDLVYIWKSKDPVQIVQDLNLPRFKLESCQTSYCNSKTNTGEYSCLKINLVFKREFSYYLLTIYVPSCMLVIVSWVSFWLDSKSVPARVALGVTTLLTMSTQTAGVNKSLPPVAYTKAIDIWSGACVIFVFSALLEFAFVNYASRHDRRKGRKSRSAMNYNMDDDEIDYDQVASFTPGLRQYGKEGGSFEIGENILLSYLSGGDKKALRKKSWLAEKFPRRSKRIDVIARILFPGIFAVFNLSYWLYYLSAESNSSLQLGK

Usually EC50 stands for the midpoint of the concentration-response curve. On to `N[C@@H](CCC(=O)O)C(=O)O` [glutamate, L-glutamate], for which the EC50 in the assay with AgGluCl is 30 µM; in the assay with HcGluClα, 28 µM; at CrGluCl-A (EC50 Glutamate, currents at 60 mV, Hill fit), 7.2 ± 2.7 µM. Further, the “nH (glutamate)” value at CrGluCl-A (60 mV) was determined as 1.65 ± 0.63.
Take ivermectin: the “effect of ivermectin on current” value with CrGluCl-B M340T mutant is given as “no effect”; in the assay with CrGluCl-B Y361F mutant, “small but significant effects”. In addition, in the assay with CrGluCl-B Q327T mutant, the “effect of ivermectin on current compared with WT” value is listed as “significantly greater”. In addition, the “nH (ivermectin)” value in assay [1] was determined as 2.6 ± 1.1. In addition, the EC50 in assay [1] (read-out: EC50 ivermectin (Iver response to activation)) worked out at 0.278 ± 0.053 µM.
